According to paper PMC8989888, “Development of optimized drug-like small molecule inhibitors of the SARS-CoV-2 3CL protease for treatment of COVID-19” (Nature Communications, 2022):
“And” between values parts separate entries of the source, which are not always exact repeats. Equal entries are not always repeated. “Also recorded” adds a separate entry of the source. Where two headings read alike, the source gives them in different places.

Experiments:
[1] = tested on: human chymotrypsin; assay: Chymotrypsin activity assay (Panc-1 cell lysate); format: biochemical
[2] = tested on: SARS-CoV-2; assay: microbe, parasite or virus in culture; format: cell-based
[3] = tested on: SARS-CoV-2; assay: microbe, parasite or virus in culture; format: cell-based; conditions: for EC50: Severe acute respiratory syndrome coronavirus 2, 24 h, read-out: SARS-CoV-2 Huh-7ACE2 EC50
[4] = tested on: SARS-CoV-2; assay: microbe, parasite or virus in culture; format: cell-based; conditions: Severe acute respiratory syndrome coronavirus 2, read-out: SARS-CoV-2 EC50
[5] = biological target: T1, Cathepsin L (Homo sapiens, UniProt P07711); conditions: read-out: IC50 on human cathepsin L; cited from earlier work
T1 construct: Human liver; from tissue; host or cells: human liver

[6] = in vitro; conditions: human, plasma
[7] = in vitro; conditions: CD-1, mouse, plasma
[8] = in vitro; conditions: human, microsomes, pH 7.4
[9] = in vitro; conditions: CD-1, mouse, microsomes, pH 7.4
[10] = physchem; conditions: aqueous buffer, kinetic from dmso stock
[11] = biological target: T2, SARS-CoV-2 3CL protease (Severe acute respiratory syndrome coronavirus 2, UniProt P0DTD1); assay: biochemical; conditions: for IC50: read-out: SARS-CoV-2 3CLpro IC50
[12] = biological target: T2, SARS-CoV-2 3CL protease; assay: biochemical; conditions: for kinact/KI: read-out: SARS-CoV-2 3CLpro kinact/KI
[13] = biological target: ACE1 (Homo sapiens, UniProt P12821); assay: biochemical
[14] = biological target: ACE2 (Homo sapiens, UniProt Q9BYF1); assay: biochemical
[15] = biological target: Caspase 8 (Homo sapiens, UniProt Q14790); assay: biochemical
[16] = biological target: Cathepsin B (Homo sapiens, UniProt P07858); assay: biochemical
[17] = biological target: T1, Cathepsin L; assay: Protease selectivity panel: Cathepsin L; format: biochemical
[18] = biological target: Elastase (Homo sapiens, UniProt P08246); assay: biochemical
[19] = biological target: Factor Xa (Homo sapiens, UniProt P00742); assay: biochemical
[20] = biological target: Furin (Homo sapiens, UniProt P09958); assay: biochemical
[21] = biological target: MMP 1 (Homo sapiens, UniProt P03956); assay: biochemical
[22] = biological target: PLpro (Severe acute respiratory syndrome coronavirus 2, UniProt P0DTD1); assay: Protease selectivity panel: PLpro; format: biochemical; conditions: SARS-CoV-2 recombinant
[23] = biological target: Thrombin a (Homo sapiens, UniProt P00734); assay: biochemical
[24] = biological target: TMPRSS2 (Homo sapiens, UniProt O15393); assay: biochemical
[25] = biological target: Trypsin (Bos taurus, UniProt P00760); assay: Protease selectivity panel: Trypsin; format: biochemical; conditions: Bovine pancreas
[26] = biological target: Urokinase (Homo sapiens, UniProt P00749); assay: biochemical
[27] = tested on: SARS coronavirus (strain: Urbani); assay: organism not typed; format: cell-based, SARS-CoV
[28] = tested on: MERS Coronavirus (strain: EMC); assay: microbe, parasite or virus in culture; format: cell-based, MERS-CoV
[29] = tested on: Human coronavirus alpha (strain: 229E); assay: organism not typed; format: cell-based, HCoV-229E
[30] = tested on: Human coronavirus beta (strain: OC43); assay: organism not typed; format: cell-based, HCoV-OC43; conditions: Huh-7, read-out: EC50, human coronavirus OC43
[31] = tested on: Influenza A H1N1 (strain: California/07/2009); assay: microbe, parasite or virus in culture; format: cell-based; conditions: for EC50: Influenza A virus, H1N1, MDCK, read-out: Influenza A (H1N1) MDCK EC50
[32] = mouse, in vivo, po
[33] = both, C57BL/6, mouse, in vivo
[34] = in vitro
[35] = tested on: SARS-CoV-2; assay: microbe, parasite or virus in culture; conditions: Severe acute respiratory syndrome coronavirus 2, Caco-2, 72 h, read-out: SARS-CoV-2 Caco-2 EC90
[36] = biological target: Cathepsin K (Homo sapiens, UniProt P43235); assay: Protease selectivity panel: Cathepsin K
[37] = biological target: Cathepsin S (Homo sapiens, UniProt P25774); assay: Protease selectivity panel: Cathepsin S
[38] = In vivo safety study of NK01-63 (body weight); conditions: C57BL/6 mice, 20 mg/kg IP or PO once per day, 14 days, vs vehicle
[39] = biological target: SARS-CoV-2; assay: cell-based
[40] = Severe acute respiratory syndrome coronavirus 2, Vero C1008, read-out: SARS-CoV-2 Vero E6 EC50
[41] = Concentration of inhibitor (nM) 0.19382
[42] = Concentration of inhibitor (nM) 0.49485
[43] = Concentration of inhibitor (nM) 0.79588
[44] = Concentration of inhibitor (nM) 1.09691
[45] = Concentration of inhibitor (nM) 1.39794
[46] = Concentration of inhibitor (nM) 1.69897
[47] = Concentration of inhibitor (nM) 2.30103
[48] = Concentration of inhibitor (nM) 2.60206
[49] = Concentration of inhibitor (nM) -0.10721
[50] = Concentration of inhibitor (nM) -0.40824
[51] = Human liver, substrate 1 (Z-FR-AMC), […] Cathepsin L, read-out: IC50
[52] = Human liver, substrate 2 (MCA-PLGL-Dap(Dnp)-AR-NH2), 0.5 nM Cathepsin L, read-out: IC50
[53] = read-out: IC50 on human cathepsin L
[54] = Vero 76, read-out: SARS-CoV Vero 76 EC50
[55] = read-out: SARS-CoV Vero 76 EC50
[56] = Huh-7, read-out: EC50, human coronavirus 229E

T1 sequence (P07711 114-333): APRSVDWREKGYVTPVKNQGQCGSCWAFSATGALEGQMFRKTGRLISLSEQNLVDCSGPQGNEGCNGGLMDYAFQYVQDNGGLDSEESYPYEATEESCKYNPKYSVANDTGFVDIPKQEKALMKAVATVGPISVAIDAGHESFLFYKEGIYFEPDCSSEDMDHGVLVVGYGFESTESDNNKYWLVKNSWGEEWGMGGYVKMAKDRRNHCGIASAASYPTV
Sequence of Elastase (P08246 30-267): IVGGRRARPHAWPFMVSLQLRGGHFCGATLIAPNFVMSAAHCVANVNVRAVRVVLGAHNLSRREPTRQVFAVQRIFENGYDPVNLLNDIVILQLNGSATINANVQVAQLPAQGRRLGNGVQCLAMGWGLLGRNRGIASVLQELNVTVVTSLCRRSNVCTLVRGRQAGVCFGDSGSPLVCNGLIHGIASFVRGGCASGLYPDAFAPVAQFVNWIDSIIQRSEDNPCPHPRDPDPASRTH
Sequence of Furin (P09958 108-715): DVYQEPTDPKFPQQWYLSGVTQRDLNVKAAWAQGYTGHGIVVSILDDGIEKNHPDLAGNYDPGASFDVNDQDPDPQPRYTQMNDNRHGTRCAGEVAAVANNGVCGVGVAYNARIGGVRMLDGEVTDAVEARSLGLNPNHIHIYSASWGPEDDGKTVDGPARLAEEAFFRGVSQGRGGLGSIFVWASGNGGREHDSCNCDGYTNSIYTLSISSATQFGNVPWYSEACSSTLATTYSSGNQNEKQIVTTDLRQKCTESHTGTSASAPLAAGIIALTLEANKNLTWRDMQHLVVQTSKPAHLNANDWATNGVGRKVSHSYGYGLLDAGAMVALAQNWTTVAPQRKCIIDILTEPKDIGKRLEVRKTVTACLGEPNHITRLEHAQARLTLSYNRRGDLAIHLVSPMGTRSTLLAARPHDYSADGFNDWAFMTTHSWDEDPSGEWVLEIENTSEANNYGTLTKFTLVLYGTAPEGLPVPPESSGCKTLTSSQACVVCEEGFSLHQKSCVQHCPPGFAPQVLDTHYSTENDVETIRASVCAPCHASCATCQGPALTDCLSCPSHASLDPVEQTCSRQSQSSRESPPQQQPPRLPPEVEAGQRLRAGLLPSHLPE
Sequence of ACE2 (Q9BYF1 18-740): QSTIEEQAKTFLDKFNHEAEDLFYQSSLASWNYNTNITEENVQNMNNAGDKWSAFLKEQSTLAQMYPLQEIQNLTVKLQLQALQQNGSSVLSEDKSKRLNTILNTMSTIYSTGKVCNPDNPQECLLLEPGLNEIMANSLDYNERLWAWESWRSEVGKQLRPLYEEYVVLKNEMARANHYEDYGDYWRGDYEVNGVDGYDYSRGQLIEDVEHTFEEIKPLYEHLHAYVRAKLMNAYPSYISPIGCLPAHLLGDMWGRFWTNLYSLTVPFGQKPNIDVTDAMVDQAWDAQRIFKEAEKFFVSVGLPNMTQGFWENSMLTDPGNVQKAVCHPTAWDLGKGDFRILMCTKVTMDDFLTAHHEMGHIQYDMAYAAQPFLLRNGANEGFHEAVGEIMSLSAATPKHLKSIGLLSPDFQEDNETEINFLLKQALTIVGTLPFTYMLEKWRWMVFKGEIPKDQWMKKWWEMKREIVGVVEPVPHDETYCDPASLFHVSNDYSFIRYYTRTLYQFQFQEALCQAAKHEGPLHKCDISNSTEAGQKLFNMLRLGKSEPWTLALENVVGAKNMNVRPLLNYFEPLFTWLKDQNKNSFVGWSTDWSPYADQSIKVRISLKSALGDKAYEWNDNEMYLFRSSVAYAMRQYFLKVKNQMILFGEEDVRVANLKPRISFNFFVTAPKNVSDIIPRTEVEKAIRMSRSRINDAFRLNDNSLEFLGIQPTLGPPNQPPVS
Sequence of Factor Xa (P00742 235-488): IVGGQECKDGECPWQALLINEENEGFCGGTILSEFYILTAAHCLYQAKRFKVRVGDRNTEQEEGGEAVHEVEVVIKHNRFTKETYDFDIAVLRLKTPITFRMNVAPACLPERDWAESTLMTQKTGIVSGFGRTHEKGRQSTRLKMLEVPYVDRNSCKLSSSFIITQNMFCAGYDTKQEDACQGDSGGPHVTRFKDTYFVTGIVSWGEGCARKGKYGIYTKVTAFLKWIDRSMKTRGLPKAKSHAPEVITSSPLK
Sequence of Factor Xa (P00742 41-179): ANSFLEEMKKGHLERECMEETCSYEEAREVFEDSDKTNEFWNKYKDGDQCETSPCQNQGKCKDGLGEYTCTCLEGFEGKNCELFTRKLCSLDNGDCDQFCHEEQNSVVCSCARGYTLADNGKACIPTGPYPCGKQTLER
Sequence of MMP 1 (P03956 100-268): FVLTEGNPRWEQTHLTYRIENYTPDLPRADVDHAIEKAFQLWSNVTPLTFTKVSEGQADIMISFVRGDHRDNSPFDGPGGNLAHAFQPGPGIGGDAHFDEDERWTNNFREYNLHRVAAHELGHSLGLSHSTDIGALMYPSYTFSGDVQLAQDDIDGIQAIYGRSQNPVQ
Sequence of ACE1 (P12821 30-1261): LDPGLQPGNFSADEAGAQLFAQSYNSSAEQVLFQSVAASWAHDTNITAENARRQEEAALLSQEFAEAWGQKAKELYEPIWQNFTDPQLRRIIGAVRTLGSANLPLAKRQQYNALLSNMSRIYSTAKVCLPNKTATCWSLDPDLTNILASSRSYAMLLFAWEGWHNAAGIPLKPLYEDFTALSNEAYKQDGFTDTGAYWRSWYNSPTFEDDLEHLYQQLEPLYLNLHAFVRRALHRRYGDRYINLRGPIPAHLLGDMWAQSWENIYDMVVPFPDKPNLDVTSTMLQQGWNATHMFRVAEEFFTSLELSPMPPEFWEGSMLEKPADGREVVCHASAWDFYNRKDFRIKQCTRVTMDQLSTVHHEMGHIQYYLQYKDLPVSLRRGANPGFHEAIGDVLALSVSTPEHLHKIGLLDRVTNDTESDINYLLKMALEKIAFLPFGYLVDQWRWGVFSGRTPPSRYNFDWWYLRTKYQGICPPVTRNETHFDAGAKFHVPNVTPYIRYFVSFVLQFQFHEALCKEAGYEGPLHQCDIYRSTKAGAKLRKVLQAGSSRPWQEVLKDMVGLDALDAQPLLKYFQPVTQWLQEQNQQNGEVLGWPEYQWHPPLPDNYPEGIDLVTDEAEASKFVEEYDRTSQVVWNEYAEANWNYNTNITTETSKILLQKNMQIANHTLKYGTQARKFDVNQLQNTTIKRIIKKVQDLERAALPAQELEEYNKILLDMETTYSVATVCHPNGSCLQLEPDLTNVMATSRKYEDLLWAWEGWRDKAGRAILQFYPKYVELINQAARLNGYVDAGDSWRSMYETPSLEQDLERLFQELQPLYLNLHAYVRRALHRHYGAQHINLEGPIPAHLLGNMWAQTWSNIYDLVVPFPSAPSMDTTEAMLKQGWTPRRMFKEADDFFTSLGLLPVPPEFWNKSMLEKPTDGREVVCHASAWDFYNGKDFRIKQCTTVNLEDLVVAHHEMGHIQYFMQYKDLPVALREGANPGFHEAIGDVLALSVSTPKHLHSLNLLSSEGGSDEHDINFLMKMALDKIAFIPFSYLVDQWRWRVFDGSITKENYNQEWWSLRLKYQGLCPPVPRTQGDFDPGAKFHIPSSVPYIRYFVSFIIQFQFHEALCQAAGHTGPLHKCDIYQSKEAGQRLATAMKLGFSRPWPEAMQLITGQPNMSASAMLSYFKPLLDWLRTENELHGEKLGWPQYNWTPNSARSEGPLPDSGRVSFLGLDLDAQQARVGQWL
Sequence of Trypsin (P00760 24-246): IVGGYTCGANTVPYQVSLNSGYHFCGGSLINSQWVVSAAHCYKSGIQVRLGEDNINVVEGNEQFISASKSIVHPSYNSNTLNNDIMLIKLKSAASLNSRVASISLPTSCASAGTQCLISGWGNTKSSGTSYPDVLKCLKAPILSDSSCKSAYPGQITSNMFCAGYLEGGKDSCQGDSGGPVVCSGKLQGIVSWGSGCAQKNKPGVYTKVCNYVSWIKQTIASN
Sequence of TMPRSS2 (O15393 106-492): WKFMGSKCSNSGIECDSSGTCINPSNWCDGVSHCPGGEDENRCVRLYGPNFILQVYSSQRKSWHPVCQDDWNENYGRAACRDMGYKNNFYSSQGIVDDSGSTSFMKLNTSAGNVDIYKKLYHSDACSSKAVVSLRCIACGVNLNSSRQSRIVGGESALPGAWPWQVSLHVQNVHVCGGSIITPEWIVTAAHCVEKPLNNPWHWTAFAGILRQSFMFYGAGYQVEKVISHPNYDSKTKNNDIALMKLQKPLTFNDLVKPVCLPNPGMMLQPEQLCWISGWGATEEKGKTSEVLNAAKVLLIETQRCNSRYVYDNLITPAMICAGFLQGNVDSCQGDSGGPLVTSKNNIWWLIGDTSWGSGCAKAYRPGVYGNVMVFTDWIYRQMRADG
Sequence of Cathepsin S (P25774 115-331): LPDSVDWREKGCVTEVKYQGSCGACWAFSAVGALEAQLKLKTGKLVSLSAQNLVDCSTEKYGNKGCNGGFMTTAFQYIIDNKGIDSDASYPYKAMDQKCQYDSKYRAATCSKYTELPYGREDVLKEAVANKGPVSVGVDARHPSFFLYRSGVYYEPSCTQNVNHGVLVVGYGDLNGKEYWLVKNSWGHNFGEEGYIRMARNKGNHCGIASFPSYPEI
Sequence of Caspase 8 (Q14790 217-479): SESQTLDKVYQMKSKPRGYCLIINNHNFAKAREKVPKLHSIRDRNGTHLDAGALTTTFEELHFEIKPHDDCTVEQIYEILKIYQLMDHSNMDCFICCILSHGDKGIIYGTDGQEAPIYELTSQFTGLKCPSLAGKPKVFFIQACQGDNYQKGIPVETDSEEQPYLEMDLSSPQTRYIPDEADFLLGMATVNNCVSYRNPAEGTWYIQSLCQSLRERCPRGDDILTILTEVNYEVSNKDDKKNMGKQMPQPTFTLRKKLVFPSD
Sequence of Cathepsin K (P43235 115-329): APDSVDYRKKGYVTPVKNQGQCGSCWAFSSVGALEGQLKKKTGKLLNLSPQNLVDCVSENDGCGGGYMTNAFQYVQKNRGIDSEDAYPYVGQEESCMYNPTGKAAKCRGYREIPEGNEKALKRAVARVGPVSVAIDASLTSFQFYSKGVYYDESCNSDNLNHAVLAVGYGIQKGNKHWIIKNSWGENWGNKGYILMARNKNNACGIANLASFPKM

Compound: CC(C)CC(NC(=O)OCc1ccccc1)C(=O)NC(CC1CCNC1=O)C(O)S(=O)(=O)O (stereo not drawn) [GC376, reference compound]
- Normalized chymotrypsin activity [1]: 1.05 and 0.8698 and 0.9664
- Protease activity in cell lysate normalised to DMSO (Figure S22D) [1]: 1.05 and 0.8698 and 0.9664
- EC50 ([2]; Severe acute respiratory syndrome coronavirus 2, Vero C1008, 72 h, read-out: EC50, inhibition of SARS-CoV-2 viral replication): 6000 nM
- EC50 [2, 40]: 9000 nM
- EC50 [3]: 51 nM
- EC50 [4]: 146 nM
- concentrations at which turbidity was observed: 25000 to 200000 µM
- IC50 [5]: 0.33 nM
- half-life [6]: > 4 h
- half-life [7]: > 4 h
- half-life [8]: > 1.33 h
- half-life [9]: > 1.33 h
- solubility [10]: ≤ 1000 µM

Compound: CC(C)C[C@H](NC(=O)OCc1cccc(C(F)(F)F)c1)C(=O)N[C@@H](C[C@@H]1CCNC1=O)C(O)S(=O)(=O)O (stereo partly drawn) [NK01-63]
- IC50 ([11]; 20 nM protease): 16 nM
- normalized activity, dose-response curve (Figure S16) [11, 41]: 93.111 and 89.2676
- normalized activity, dose-response curve (Figure S16) [11, 42]: 89.4126 and 81.5809
- normalized activity, dose-response curve (Figure S16) [11, 43]: 77.0123 and 75.7796
- normalized activity, dose-response curve (Figure S16) [11, 44]: 63.0167 and 61.2038
- normalized activity, dose-response curve (Figure S16) [11, 45]: 43.8724 and 49.3111
- normalized activity, dose-response curve (Figure S16) [11, 46]: 23.8579 and 30.4568
- normalized activity, dose-response curve (Figure S16) ([11]; Concentration of inhibitor (nM) 2): 10.3698 and 13.7056
- normalized activity, dose-response curve (Figure S16) [11, 47]: 8.412 and 10.6599
- normalized activity, dose-response curve (Figure S16) [11, 48]: 5.004 and 8.702
- normalized activity, dose-response curve (Figure S16) [11, 49]: 91.5881 and 97.1719
- normalized activity, dose-response curve (Figure S16) [11, 50]: 100 and 96.1566
- IC50 ([11]; Supplementary Table 2): 6 nM
- observed inactivation rate vs compound concentration (Figure S19, replicate values) [12]: 0.0289 and 0.04017 and 0.02561 and 0.0288 and 0.05998 and 0.02398 and 0.0512 and 0.02223 and 0.03571 and 0.0324 and 0.05689 and 0.02237 and 0.0081 and 0.01635 and 0.01687
- kinact/KI [12]: 73300 M⁻¹ s⁻¹
- IC50 [13]: > 100000 nM
- IC50 [14]: > 100000 nM
- IC50 [15]: 18000 nM
- IC50 [16]: 1100 nM
- IC50 [17, 51]: 6 nM
- IC50 [17, 52]: 170 nM
- IC50 [17, 53]: 6 nM
- IC50 [18]: > 100000 nM
- IC50 [19]: > 100000 nM
- IC50 [20]: > 100000 nM
- IC50 [21]: > 100000 nM
- IC50 [22]: > 100000 nM
- IC50 [23]: > 100000 nM
- IC50 [24]: > 100000 nM
- IC50 [25]: > 100000 nM
- IC50 [26]: > 100000 nM
- inhibition of SARS-CoV-2 (Figure s17b dose-response, replicate values) [3]: 85.8805 and 70.4035 and 120.64 and 101.121 and 104.666 and 80.4107 and 75.7397 and 52.4625 and 52.0629 and 53.1789 and 26.443 and 29.7439 and 43.7589 and 41.2695 and 18.2065 and 24.2009 and 38.2936 and 12.6905 and -1.598 and 19.9884 and -12.0156
- EC50 [3]: 6 nM
- EC50 [4]: 146 nM
- EC50 [27, 54]: < 3000 nM
- EC50 [27, 55]: 2100 nM
- EC50 ([28]; Middle East respiratory syndrome-related coronavirus, Vero 76, read-out: MERS-CoV Vero 76 EC50): < 1000 nM
- EC50 ([28]; read-out: MERS-CoV Vero 76 EC50): 820 nM
- EC50 [29, 56]: < 100 nM
- EC50 ([29]; Huh-7, read-out: HCoV-229E Huh-7 EC50): 170 nM
- EC50 [30]: < 100 nM
- effect on replication of Influenza H1N1 (in words) [31]: no effect was observed
- EC50 [31]: > 100000 nM
- appearance of dosing solution in water (2 mg/ml (3.5 mM) in water): the solution was clear
- Body weight relative to day 0 (Figure 6A) [32]: 100
- concentration in plasma and lung as multiple of EC90 [33]: > 100 x EC90
- CC50 [34]: > 100000 nM
- EC90 [35]: 81 nM
- IC50 [36]: 40 nM
- IC50 [37]: 30 nM
- body weight change / in vivo toxicity [38]: no in vivo toxicity via either route of administration; also recorded: No significant change in body weight

Compound: CC(C)C[C@H](NC(=O)OCc1ccccc1Cl)C(=O)N[C@@H](C[C@@H]1CCNC1=O)C(O)S(=O)(=O)O (stereo partly drawn) [EB54]
- IC50 ([11]; 20 nM protease): 29 nM
- normalized activity, dose-response curve (Figure S16) [11, 41]: 97.3415 and 94.0287
- normalized activity, dose-response curve (Figure S16) [11, 42]: 94.642 and 94.4552
- normalized activity, dose-response curve (Figure S16) [11, 43]: 92.0244 and 86.0411
- normalized activity, dose-response curve (Figure S16) [11, 44]: 76.1141 and 67.8169
- normalized activity, dose-response curve (Figure S16) [11, 45]: 59.5493 and 51.609
- normalized activity, dose-response curve (Figure S16) [11, 46]: 35.2953 and 26.9095
- normalized activity, dose-response curve (Figure S16) [11, 47]: 1.552 and 1.745
- normalized activity, dose-response curve (Figure S16) [11, 48]: 1.143 and 0.9691
- normalized activity, dose-response curve (Figure S16) [11, 49]: 100.286 and 100.194
- normalized activity, dose-response curve (Figure S16) [11, 50]: 100
- observed inactivation rate vs compound concentration (Figure S19, replicate values) [12]: 0.0534 and -0.00333 and 0.0463 and 0.0575 and 0.0117 and 0.0408 and 0.0199 and 0.0198 and 0.0352 and 0.0468 and 0.0351 and 0.0076
- kinact/KI [12]: 88300 M⁻¹ s⁻¹
- IC50 [13]: > 100000 nM
- IC50 [14]: > 100000 nM
- IC50 [15]: 52000 nM
- IC50 [16]: 350 nM
- IC50 [17, 51]: 1 nM
- IC50 [17, 52]: 6 nM
- IC50 [17, 53]: 1 nM
- IC50 [18]: > 100000 nM
- IC50 [19]: > 100000 nM
- IC50 [20]: > 100000 nM
- IC50 [21]: > 100000 nM
- IC50 [22]: > 100000 nM
- IC50 [23]: > 100000 nM
- IC50 [24]: > 100000 nM
- IC50 [25]: > 100000 nM
- IC50 [26]: > 100000 nM
- EC50 [2, 40]: 2000 nM
- inhibition of SARS-CoV-2 (Figure s17b dose-response, replicate values) [3]: 99.8698 and 98.0961 and 101.644 and 87.6327 and 101.522 and 73.7431 and 78.1084 and 77.7143 and 78.5024 and 57.3714 and 60.2928 and 54.45 and 31.9222 and 32.9312 and 30.9133 and 24.3408 and 28.9565 and 19.7251 and 10.4228 and 9.535 and 11.3102
- EC50 [3]: 5 nM
- EC50 [4]: 28 nM
- EC50 [27, 54]: < 3000 nM
- EC50 [27, 55]: 2400 nM
- EC50 [29, 56]: < 100 nM
- EC50 [30]: < 100 nM
- effect on replication of Influenza H1N1 (in words) [31]: no effect was observed
- EC50 [31]: > 100000 nM
- EC50 [39]: 1200 nM
- CC50 [34]: > 100000 nM
- EC90 [35]: 190 nM
- IC50 [36]: 20 nM
- IC50 [37]: 6 nM
